Data from ChEMBL document CHEMBL1148295, “Evaluation and comparison of 3D-QSAR CoMSIA models for CDK1, CDK5, and GSK-3 inhibition by paullones” (J Med Chem, 2004).

How the values were obtained:
[1] = molecular target: Cyclin-dependent kinase 5/CDK5 activator 1 (Homo sapiens, UniProt Q00535); format: protein-complex assay
Description: Inhibitory activity against cyclin-dependent kinase 5/p25

[2] = molecular target: Cyclin-dependent kinase 1/cyclin B (Homo sapiens, UniProt O95067+P06493+P14635+Q8WWL7); format: cell-based, Marthasterias glacialis, Oocyte
Cyclin-dependent kinase 1/cyclin B, sequence (P06493 whole entry): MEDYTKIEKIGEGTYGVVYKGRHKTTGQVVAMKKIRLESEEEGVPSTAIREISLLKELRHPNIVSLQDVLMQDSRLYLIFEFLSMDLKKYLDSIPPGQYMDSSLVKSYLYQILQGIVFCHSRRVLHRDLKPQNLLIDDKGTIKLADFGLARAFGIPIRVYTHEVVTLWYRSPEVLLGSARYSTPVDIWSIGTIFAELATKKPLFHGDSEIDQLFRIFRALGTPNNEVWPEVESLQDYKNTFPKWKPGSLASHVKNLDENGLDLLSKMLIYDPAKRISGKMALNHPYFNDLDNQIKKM
Cyclin-dependent kinase 1/cyclin B, sequence (P14635 whole entry): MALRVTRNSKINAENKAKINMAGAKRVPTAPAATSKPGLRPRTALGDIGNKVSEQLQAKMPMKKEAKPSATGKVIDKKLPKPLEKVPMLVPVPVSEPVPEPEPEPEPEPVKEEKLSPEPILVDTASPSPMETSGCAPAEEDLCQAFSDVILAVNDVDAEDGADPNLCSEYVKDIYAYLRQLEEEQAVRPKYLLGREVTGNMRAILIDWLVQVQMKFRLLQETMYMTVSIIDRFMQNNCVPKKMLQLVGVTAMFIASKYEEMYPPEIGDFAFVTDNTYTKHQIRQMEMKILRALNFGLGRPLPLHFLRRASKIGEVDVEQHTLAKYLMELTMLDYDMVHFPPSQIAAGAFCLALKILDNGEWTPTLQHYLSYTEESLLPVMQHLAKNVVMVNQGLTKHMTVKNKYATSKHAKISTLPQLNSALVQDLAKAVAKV
Cyclin-dependent kinase 1/cyclin B, sequence (Q8WWL7 whole entry): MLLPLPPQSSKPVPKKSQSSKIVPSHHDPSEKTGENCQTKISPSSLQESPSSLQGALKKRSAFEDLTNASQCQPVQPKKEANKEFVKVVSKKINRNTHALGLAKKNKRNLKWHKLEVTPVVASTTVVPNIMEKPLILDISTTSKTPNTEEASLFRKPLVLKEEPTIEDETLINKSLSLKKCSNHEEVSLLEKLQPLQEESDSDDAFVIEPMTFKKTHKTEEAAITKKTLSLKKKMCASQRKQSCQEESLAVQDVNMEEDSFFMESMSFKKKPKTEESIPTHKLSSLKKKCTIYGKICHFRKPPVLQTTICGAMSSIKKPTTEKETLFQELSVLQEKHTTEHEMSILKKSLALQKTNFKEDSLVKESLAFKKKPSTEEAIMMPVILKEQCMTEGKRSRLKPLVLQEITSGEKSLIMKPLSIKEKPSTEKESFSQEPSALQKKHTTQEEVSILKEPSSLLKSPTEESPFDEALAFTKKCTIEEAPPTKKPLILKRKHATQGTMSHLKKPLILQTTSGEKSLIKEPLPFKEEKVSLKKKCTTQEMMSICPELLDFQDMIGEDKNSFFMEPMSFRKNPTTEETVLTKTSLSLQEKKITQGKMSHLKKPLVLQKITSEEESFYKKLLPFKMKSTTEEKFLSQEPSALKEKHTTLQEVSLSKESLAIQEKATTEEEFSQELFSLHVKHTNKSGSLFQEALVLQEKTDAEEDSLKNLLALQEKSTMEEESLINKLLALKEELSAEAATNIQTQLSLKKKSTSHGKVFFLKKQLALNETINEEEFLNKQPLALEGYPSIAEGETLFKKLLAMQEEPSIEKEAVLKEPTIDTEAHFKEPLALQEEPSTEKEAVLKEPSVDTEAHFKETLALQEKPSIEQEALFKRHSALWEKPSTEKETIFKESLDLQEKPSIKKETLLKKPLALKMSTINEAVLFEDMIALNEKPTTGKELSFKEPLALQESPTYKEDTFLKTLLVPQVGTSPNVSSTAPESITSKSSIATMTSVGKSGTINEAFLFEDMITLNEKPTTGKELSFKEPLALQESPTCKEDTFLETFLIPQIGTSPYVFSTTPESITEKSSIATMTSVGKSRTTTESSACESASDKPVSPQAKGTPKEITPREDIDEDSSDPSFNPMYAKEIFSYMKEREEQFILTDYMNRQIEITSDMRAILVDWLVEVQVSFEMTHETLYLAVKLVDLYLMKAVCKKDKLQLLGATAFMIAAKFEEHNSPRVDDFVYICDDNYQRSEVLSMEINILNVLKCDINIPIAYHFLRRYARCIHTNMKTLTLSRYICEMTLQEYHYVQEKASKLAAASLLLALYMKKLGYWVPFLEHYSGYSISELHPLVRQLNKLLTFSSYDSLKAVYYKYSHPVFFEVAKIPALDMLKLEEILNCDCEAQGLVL
Cyclin-dependent kinase 1/cyclin B, sequence (O95067 whole entry): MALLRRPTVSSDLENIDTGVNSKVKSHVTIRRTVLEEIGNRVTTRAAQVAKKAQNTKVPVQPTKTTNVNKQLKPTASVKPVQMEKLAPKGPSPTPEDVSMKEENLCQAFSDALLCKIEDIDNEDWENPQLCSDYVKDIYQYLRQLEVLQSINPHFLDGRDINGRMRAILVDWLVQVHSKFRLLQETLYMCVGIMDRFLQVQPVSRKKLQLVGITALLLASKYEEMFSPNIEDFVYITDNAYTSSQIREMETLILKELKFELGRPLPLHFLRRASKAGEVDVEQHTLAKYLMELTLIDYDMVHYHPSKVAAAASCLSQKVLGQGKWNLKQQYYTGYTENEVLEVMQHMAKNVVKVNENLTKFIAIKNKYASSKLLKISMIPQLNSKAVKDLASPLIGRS
Description: Inhibitory activity against cyclin dependent kinase 1-cyclinB extracted from M phase starfish (Marthasterias glacialis) oocytes

Cyclin-dependent kinase 5/CDK5 activator 1, sequence (Q00535 whole entry): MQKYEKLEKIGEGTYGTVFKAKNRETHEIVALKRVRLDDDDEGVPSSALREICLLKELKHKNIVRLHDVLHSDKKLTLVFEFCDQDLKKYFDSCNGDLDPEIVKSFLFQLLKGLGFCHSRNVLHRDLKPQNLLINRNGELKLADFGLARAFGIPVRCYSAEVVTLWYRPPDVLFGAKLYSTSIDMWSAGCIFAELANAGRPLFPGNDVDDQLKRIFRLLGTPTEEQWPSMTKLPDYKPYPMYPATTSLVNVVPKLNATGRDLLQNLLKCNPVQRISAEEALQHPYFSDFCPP
Cyclin-dependent kinase 5/CDK5 activator 1, sequence (Q15078 whole entry, further chain): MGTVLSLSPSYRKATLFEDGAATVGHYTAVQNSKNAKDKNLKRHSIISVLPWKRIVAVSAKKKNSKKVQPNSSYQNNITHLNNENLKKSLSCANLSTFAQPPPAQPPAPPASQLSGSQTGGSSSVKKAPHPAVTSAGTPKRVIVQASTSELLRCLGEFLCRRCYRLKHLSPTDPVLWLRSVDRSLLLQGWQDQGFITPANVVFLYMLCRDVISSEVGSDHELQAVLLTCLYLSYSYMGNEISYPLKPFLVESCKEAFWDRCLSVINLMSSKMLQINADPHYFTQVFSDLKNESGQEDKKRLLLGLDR

SMILES | IC50 [1] [µM] | IC50 [2] [µM]
COc1ccc2c(c1)NC(=O)Cc1c-2[nH]c2ccc([N+](=O)[O-])cc12 | 0.63 | 1
N#Cc1ccc2[nH]c3c(c2c1)CC(=O)Nc1ccsc1-3 | – | 0.075
Cc1ccc2[nH]c3c(c2c1)CC(=O)Nc1ccsc1-3 | 40 | –
O=C1Cc2c([nH]c3ccc([N+](=O)[O-])cc23)-c2sccc2N1 | 0.1 | 0.08
O=C1Cc2c([nH]c3ccc(C(F)(F)F)cc23)-c2cccnc2N1 | 13 | 6
COc1ccc2[nH]c3c(c2c1)CC(=O)Nc1ncccc1-3 | 420 | 89.9
O=[N+]([O-])c1ccc2[nH]c3c(c2c1)CC(=S)Nc1ccccc1-3 | 1.7 | 1.3
Cc1ccc2[nH]c3c(c2c1)CC(=O)Nc1ncccc1-3 | 430 | 200
O=C1Cc2c([nH]c3ccc(Br)cc23)-c2sccc2N1 | 4 | –
CSC1=Nc2ccccc2-c2c(c3cc([N+](=O)[O-])ccc3n2C)C1 | 849 | 230
SC1=Nc2ccccc2-c2cc(-c3ccccn3)cc(-c3cccs3)c2C1 | – | 33
O=C1Cc2c([nH]c3ccc(Cl)cc23)-c2cccnc2N1 | 42 | 23
O=C1Cc2c([nH]c3ncccc23)-c2ccccc2N1 | 3.3 | –
CC(=O)Cc1ccc2c(c1)-c1[nH]c3ccc(C(F)(F)F)cc3c1CC(=O)N2 | 0.42 | –
O=C1Cc2c([nH]c3ccc(Cl)cc23)-c2sccc2N1 | 5 | –
